Molecules are shown by their SMILES. pIC50: −log10 of the molar value.

The first experiment deals with T1, HCV polymerase (Hepatitis C virus genotype 1b, UniProt Q9WMX2).
T1 construct: (His)6 (C)
In words: biochemical. The conditions noted are these: NS5B polymerase IC50 μM, polymerase assay of Biological Example 1. From the text: A number of assays have been published to assess these activities. A general method that assesses the gross increase of HCV virus in culture was disclosed in U.S. Pat. No. 5,738,985 to Miles et al. In vitro assays have been reported in Ferrari et al. Jnl. of Vir., 73:1649-1654, 1999; Ishii et al., Hepatology, 29:1227-1235, 1999; Lohmann et al., Jnl of Bio. Chem., 274:10807-10815, 1999; and Yamashita et al., Jnl. of Bio. Chem., 273:15479-15486, 1998.
WO 97/12033, filed on Sep. 27, 1996, by Emory University, listing C. Hagedorn and A. Reinoldus as inventors, which claims priority to U.S. Provisional Patent Application Ser. No. 60/004,383, filed on September 1995, described an HCV polymerase assay that can be used to evaluate the activity of the of the compounds described herein. Another HCV polymerase assay has been reported by Bartholomeusz, et al., Hepatitis C Virus (HCV) RNA polymerase assay using cloned HCV non-structural proteins; Antiviral Therapy 1996:1(Supp 4) 18-24.
The compound `CNC(=O)c1c(-c2ccc(C)cc2)oc2nc(N(CCCP(C)(=O)O)S(C)(=O)=O)c(C3CC3)cc12` [Example 23.99998, 3-(N-(5-cyclopropyl-3-(methylcarbamoyl)-2-p-tolylfuro[2,3-b]pyridin-6-yl)methylsulfonamido)propyl (methyl)phosphinic acid] registered a concentration for half-maximal inhibition (IC50) of 0.005 µM.
On the same count and under the same terms, under `CNC(=O)c1c(-c2ccc(C)cc2)oc2nc(N(CCCCP(C)(=O)O)S(C)(=O)=O)c(I)cc12` [Example 23.9999, 4-(N-(5-iodo-3-(methylcarbamoyl)-2-p-tolylfuro[2,3-b]pyridin-6-yl)methylsulfonamido)butyl (methyl)phosphinic acid] stands 0.013 µM.

Staying with this experiment, now noted: polymerase assay of Biological Example 1; read-out: NS5B polymerase IC50.
Regarding `CCc1cc2c(C(=O)NC)c(-c3ccc(F)cc3)oc2nc1N(CCCC(C)(C)C(=O)OCC(C)C)S(C)(=O)=O` [Example 21.3, isobutyl 5-(N-(5-ethyl-2-(4-fluorophenyl)-3-(methylcarbamoyl)furo[2,3-b]pyridin-6-yl)methylsulfonamido)-2,2-dimethylpentanoate], the pIC50 is 6.87.
Still for that read-out and setting: the result for `CNC(=O)c1c(-c2ccc(F)cc2)oc2nc(N(CCCCC#N)S(C)(=O)=O)c(I)cc12` [Example 18.9, 6-(N-(4-cyanobutyl)methylsulfonamido)-2-(4-fluorophenyl)-5-iodo-N-methylfuro[2,3-b]pyridine-3-carboxamide] reads 6.96; that for `CNC(=O)c1c(-c2ccc(C)cc2)oc2nc(N(CCCNCCCC(=O)O)S(C)(=O)=O)c(C3CC3)cc12` [Example 23.999996, 4-(3-(N-(5-cyclopropyl-3-(methylcarbamoyl)-2-p-tolylfuro[2,3-b]pyridin-6-yl)methylsulfonamido)propylamino)butanoic acid], 7.80.
`CNC(=O)c1c(-c2ccc(F)cc2)oc2nc(N(C)S(C)(=O)=O)c(CCC#N)cc12` [Example 14, 5-(2-cyanoethyl)-2-(4-fluorophenyl)-N-methyl-6-(N-methylmethylsulfonamido)furo[2,3-b]pyridine-3-carboxamide]: the negative logarithm of the IC50 (pIC50) was 6.83.
On the same count and under the same terms, the result for `CCc1cc2c(C(=O)NC)c(-c3ccc(F)cc3)oc2nc1N(CC[C@H]1COc2c(OC)cccc21)S(C)(=O)=O` [Example 22.9, (R)-5-ethyl-2-(4-fluorophenyl)-6-(N-(2-(7-methoxy-2,3-dihydrobenzofuran-3-yl)ethyl)methylsulfonamido)-N-methylfuro[2,3-b]pyridine-3-carboxamide] reads 7.64.
The same measure, in the same setting: the result for `CNC(=O)c1c(-c2ccc(C)cc2)oc2nc(N(CCCCC(C(=O)O)S(C)(=O)=O)S(C)(=O)=O)c(C3CC3)cc12` (centres unmarked) [Example 46, 6-(N-(5-cyclopropyl-3-(methylcarbamoyl)-2-(p-tolyl)furo[2,3-b]pyridin-6-yl)methylsulfonamido)-2-(methylsulfonyl)hexanoic acid] reads 8.52; that for `CCc1cc2c(C(=O)NC)c(-c3ccc(F)cc3)oc2nc1N(CCCS(=O)(=O)C(C)(C)C)S(C)(=O)=O` [Example 23.93, 6-(N-(3-(tert-butylsulfonyl)propyl)methylsulfonamido)-5-ethyl-2-(4-fluorophenyl)-N-methylfuro[2,3-b]pyridine-3-carboxamide], 7.36.
As for `CNC(=O)c1c(-c2ccc(C)cc2)oc2nc(N(CCCN)S(C)(=O)=O)c(C3CC3)cc12` [Example 23.999995, 6-(N-(3-aminopropyl)methylsulfonamido)-5-cyclopropyl-N-methyl-2-p-tolylfuro[2,3-b]pyridine-3-carboxamide], the pIC50 is 7.85.
Same read-out and setting: under `CCc1cc2c(C(=O)NC)c(-c3ccc(F)cc3)oc2nc1N(CCCOc1ccccc1OC)S(C)(=O)=O` [Example 21.92, 5-ethyl-2-(4-fluorophenyl)-6-(N-(3-(2-methoxyphenoxy)propyl)methylsulfonamido)-N-methylfuro[2,3-b]pyridine-3-carboxamide] stands 6.45; under `CNC(=O)c1c(-c2ccc(F)cc2)oc2nc(N(CCCC(=O)OC)S(C)(=O)=O)c(I)cc12` [Example 18.7, methyl 4-(N-(2-(4-fluorophenyl)-5-iodo-3-(methylcarbamoyl)furo[2,3-b]pyridin-6-yl)methylsulfonamido)butanoate], 7.12.
The same measure, in the same setting: under `CNC(=O)c1c(-c2ccc(C)cc2)oc2nc(N(CCCC(CC#N)C(=O)O)S(C)(=O)=O)c(C3CC3)cc12` (centres unmarked) [Example 29.9999, 2-(cyanomethyl)-5-(N-(5-cyclopropyl-3-(methylcarbamoyl)-2-p-tolylfuro[2,3-b]pyridin-6-yl)methylsulfonamido) pentanoic acid] stands 8.70.
With `CCc1cc2c(C(=O)NC)c(-c3ccc(F)cc3)oc2nc1N(CCCCOc1ccccc1C#N)S(C)(=O)=O` [Example 21.96, 6-(N-(4-(2-cyanophenoxy)butyl)methylsulfonamido)-5-ethyl-2-(4-fluorophenyl)-N-methylfuro[2,3-b]pyridine-3-carboxamide], the negative logarithm of the IC50 (pIC50) was 7.14.
For `CNC(=O)c1c(-c2ccc(F)cc2)oc2nc(N(C)S(C)(=O)=O)c(CC3CO3)cc12` (centres unmarked) [Example 12, 2-(4-fluorophenyl)-N-methyl-6-(N-methylmethylsulfonamido)-5-(oxiran-2-ylmethyl)furo[2,3-b]pyridine-3-carboxamide], the pIC50 is 6.13.
Same read-out and setting: the result for `CNC(=O)c1c(-c2ccc(C)cc2)oc2nc(N(CCCC3(C(=O)O)CCOCC3)S(C)(=O)=O)c(C3CC3)cc12` [Example 28.4, 4-(3-(N-(5-cyclopropyl-3-(methylcarbamoyl)-2-p-tolylfuro[2,3-b]pyridin-6-yl)methylsulfonamido)propyl)tetrahydro-2H-pyran-4-carboxylic acid] reads 8.52; that for `CCc1cc2c(C(=O)NC)c(-c3ccc(F)cc3)oc2nc1N(CCCCC(=O)OC)S(C)(=O)=O` [Example 21, methyl 5-(N-(5-ethyl-2-(4-fluorophenyl)-3-(methylcarbamoyl)furo[2,3-b]pyridin-6-yl)methylsulfonamido)pentanoate], 8.00; that for `CCc1cc2c(C(=O)NC)c(-c3ccc(F)cc3)oc2nc1N(CCCN(C)S(=O)(=O)c1ccccc1)S(C)(=O)=O` [Example 23.9, 5-ethyl-2-(4-fluorophenyl)-N-methyl-6-(N-(3-(N-methylphenylsulfonamido)propyl)methylsulfonamido) furo[2,3-b]pyridine-3-carboxamide], 7.13.
Same read-out and setting: the result for `CCc1cc2c(C(=O)NC)c(-c3ccc(F)cc3)oc2nc1N(CCCN1CCN(C)C1=O)S(C)(=O)=O` [Example 21.94, 5-ethyl-2-(4-fluorophenyl)-N-methyl-6-(N-(3-(3-methyl-2-oxoimidazolidin-1-yl)propyl)methylsulfonamido)furo[2,3-b]pyridine-3-carboxamide] reads 7.11; that for `CCc1cc2c(C(=O)NC)c(-c3ccc(F)cc3)oc2nc1N(CCCCC(=O)N(C)C)S(C)(=O)=O` [Example 22.992, 6-(N-(5-(dimethylamino)-5-oxopentyl)methylsulfonamido)-5-ethyl-2-(4-fluorophenyl)-N-methylfuro[2,3-b]pyridine-3-carboxamide], 7.39.
Still for that read-out and setting: the result for `CNC(=O)c1c(-c2ccc(F)cc2)oc2nc(N(C)S(C)(=O)=O)c(C)cc12` [Example 2.92, 2-(4-fluorophenyl)-N,5-dimethyl-6-(N-methylmethylsulfonamido)furo[2,3-b]pyridine-3-carboxamide] reads 6.59; that for `CCc1ccc(-c2oc3nc(N(CCOCC(C)(C)C(=O)O)S(C)(=O)=O)c(C4CC4)cc3c2C(=O)NC)cc1` [Example 41.1, 3-(2-(N-(5-Cyclopropyl-2-(4-ethylphenyl)-3-(methylcarbamoyl)furo[2,3-b]pyridin-6-yl)methylsulfonamido)ethoxy)-2,2-dimethylpropanoic acid], 8.70; that for `CCc1cc2c(C(=O)NC)c(-c3ccc(F)cc3)oc2nc1N(CCCCC1=C(O)CCC1=O)S(C)(=O)=O` [Example 23.94, 5-ethyl-2-(4-fluorophenyl)-6-(N-(4-(2-hydroxy-5-oxocyclopent-1-enyl)butyl)methylsulfonamido)-N-methylfuro[2,3-b]pyridine-3-carboxamide], 7.36.
As for `CCc1cc2c(C(=O)NC)c(-c3ccc(F)cc3)oc2nc1N(CCCS(=O)(=O)N1CCOCC1)S(C)(=O)=O` [Example 21.98, 5-ethyl-2-(4-fluorophenyl)-N-methyl-6-(N-(3-(morpholinosulfonyl)propyl)methylsulfonamido)furo[2,3-b]pyridine-3-carboxamide], the pIC50 was 7.43.
Same read-out and setting: the result for `CCc1cc2c(C(=O)NC)c(-c3ccc(F)cc3)oc2nc1N(CCCN1CCOCC1)S(C)(=O)=O` [Example 21.93, 5-ethyl-2-(4-fluorophenyl)-N-methyl-6-(N-(3-morpholinopropyl)methylsulfonamido)furo[2,3-b]pyridine-3-carboxamide] reads 6.73.
On the same count and under the same terms, the result for `CNC(=O)c1c(-c2ccc(F)cc2)oc2nc(N(C)S(C)(=O)=O)c(CCCC(=O)N3CCC[C@H]3C(N)=O)cc12` [Example 4.4, (S)-5-(4-(2-carbamoylpyrrolidin-1-yl)-4-oxobutyl)-2-(4-fluorophenyl)-N-methyl-6-(N-methylmethylsulfonamido)furo[2,3-b]pyridine-3-carboxamide] reads 6.70.

The record behind these values is patent publication US20120015907A1, “Furopyridine compounds and uses thereof” (NOVARTIS AG, priority 2010, published 2012).
